According to patent publication US20250127933A1, “Method of verifying effectiveness and stability of linker in Drug Delivery system and Structure therefor” (INDUSTRY-ACADEMIC COOPERATION FOUNDATION OF SUNCHON …, priority 2023, published 2025):

What was measured:
[1] = tested on: Leucine aminopeptidase (LAP); assay: Enzymatic kinetic study of LAP reaction of activatable fluorescent probes; format: biochemical, porcine; details: for Fluorophore released in LAP reaction (% yield) / Fluorophore released in LAP reaction (concentration) / kinetics of LAP reaction (time-dependent fluorescence emission): 1 μM probe, 10 μg/mL LAP, PBS pH 7.4, 37° C., 80 min; for Fluorophore released in LAP reaction (concentration): calculated from fluorophore calibration curves; for LAP response / fluorophore release (in words): LAP reaction, enzymatic study
Procedure: All spectroscopic readings were measured with BioTek Synergy™ H1 spectrophotometer, using 96 well microplate. A parent stock solution of probes was dissolved in DMSO to obtain 10 mM. Leucine aminopeptidase was dissolved in deionized water to obtain 1 mg/mL. All spectra measurements were carried out in PBS buffer solution (PBS buffer, 10 mM, pH 7.4, 37° C. The final volume in 96 well microplate was adjusted to 200 μL. RPMI 1640 was obtained from Thermo Scientific (Waltham, MA, USA). Bestatin hydrochloride (LAP inhibitor), DMSO and 2-mercaptoethanol were purchased from Sigma Aldrich (St. Louis, Mo, USA).
The kinetic study for LAP reaction was performed by incubation of 2 μg of LAP ([…]) with 1 μM probe in PBS buffer (10 mM, pH 7.4). The plate was incubated at 37° C. for 80 min with continuous shaking, and the emission spectra were recorded at the corresponding wavelength over time. A solution of LAP (2 μg/200 μL) was pretreated with bestatin (0, 1, 10, 50 and 100 μM) in PBS (10 mM, pH 7.4) at 37° C. for 30 min, and then 1 μM of probe was added. The mixture was incubated at 37° C., and the fluorescence was recorded on Synergy™ H1 using a 96-well microplate.
All reagents and solvents were obtained from commercial sources Sigma-Aldrich Chemical Co., Combi-Block, Tokyo Chemical Industries, Daejung Chemicals, and Alfa Aesar and used without purification. Anhydrous solvents were purchased from Sigma-Aldrich and used under dry nitrogen atmosphere. Ultrapure water was obtained from a water ultra-purification system. Completion of reaction was confirmed by thin layer chromatography (TLC) on Kiesegel 60F254 from Merck and all synthesized compounds were purified by flash column chromatography using ZEOprep 60 (40-63) […] silica gel from ZEOCHEM. ^1H and ^13C NMR spectra were measured on JEOL JNMECZ400s/L1 (400 MHZ) and CDCl3 or DMSO-d6 was used as the NMR solvents. The chemical shifts were quoted in parts per million (ppm) and the coupling constant (J) were reported in hertz unit (Hz). Chemical shifts (in ppm) were referenced to tetramethylsilane (δ=0 ppm) in CDCl3 as an internal standard. ^13C NMR spectra were reported in ppm referenced to the center line of the triplet at 77.0 ppm for CDCl3 or 39.5 ppm for DMSO-d6. All in vitro enzyme assays were performed by taking the absorbance and emission on Synergy™ H1 microplate reader from BioTek. Leucine aminopeptidase from porcine kidney and other enzymes were purchased from Sigma-Aldrich.

[2] = pH-dependent stability test; format: physicochemical; details: 1 μM probe, pH 2 to 12, 25° C.
Procedure: Thermal stability was evaluated by the incubation of 1 μM of the probe in PBS buffer (pH 7.4) at different temperatures ranging from 25 to 45° C. for 20 min and reading fluorescence at each temperature. The pH stability test was performed by the incubation with 1 μM probe in different pH buffers (2 to 13) at 25° C. and recording fluorescence at each pH.

HepG2 cells = assay: Confocal live cell imaging in HepG2 cells; format: cell-based; details: 1 μM probe, LysoTracker Red DND-99, DAPI, HepG2 cells
Procedure: HepG2 cells were maintained in DMEM medium containing 10% FBS and 1% antibiotics in the 15 μ-plate 96 well black (ibidi, Germany). HepG2 cells were incubated with or without 500 μM of bestatin, LAP inhibitor, for 1 h and subsequently treated with 1 μM of probe and Lyso-Tracker™ Red (Thermo Scientific, USA) for 1 h. The treated cells were washed three times with PBS and treated with 10 μM of DAPI (Thermo Scientific, USA) for 2 h. Imaged were collected by Leica confocal microscopy (TCS SP5 AOBS/Tandem, Leica, Germany). Lyso-Tracker™ Red was excited by 514 nm and detected by 570-620 nm, compounds were excited by 476 nm and detected by 505-545 nm, DAPI was excited by 405 nm and detected by 420-470 nm.

[3] = tested on: Leucine aminopeptidase (LAP); assay: Enzymatic kinetic study of LAP reaction of activatable fluorescent probes; format: biochemical, porcine; details: 1 μM probe; LAP 1, 5, 10, 20, 50, 100 μg/mL; PBS pH 7.4, 80 min, 37° C.
[4] = Ex vivo plasma stability in mice serum; format: in vitro ADME, C57BL/6 mice; details: 10 μM probe; for % survival rate of probe in serum: C57BL/6 mice serum, 37° C.
Procedure: Animal was treated strictly according to the guidelines for laboratory animal care and use issued by the Sunchon National University Institutional Animal Care and Use Committee (SCNU IACUC). Female C57/BL6 mice (7 weeks old), weighing about 17-20 g, were purchased from Orientbio (Orientbio Inc., Seongnam, Korea). Blood was collected from the posterior orbital plexus in normal mice and centrifuged (5000 rpm, 4° C., 5 minutes) to obtain serum. The stability study was performed by incubation of the fluorescent probe (10 μM) or rhodol fluorophore (0.1, 0.3, 1, 3 and 10 μM) with serum at 37° C. . . . The fluorescence was detected on Synergy™ H1 microplate reader.

| Compound | Fluorophore released in LAP reaction (% yield) [1] [%] | Fluorophore released in LAP reaction (concentration) [1] [µM] | kinetics of LAP reaction (time-dependent fluorescence emission) [1] | further results |
| --- | --- | --- | --- | --- |
| COc1ccc2c(c1)Oc1cc(OCc3ccc(NC(=O)[C@@H](N)CC(C)C)cc3)ccc1C21OCc2ccccc21 (stereo partly drawn) [Probe 12, (2S)-2-Amino-N-(4-(((3′-methoxy-3H-spiro[isobenzofuran-1,9′-xanthen]-6′-yl)oxy)methyl)phenyl)-4-methylpentanamide] | 73.6 | ~0.736 |  |  |
| CCN(CC)c1ccc2c(c1)Oc1cc(NC(=O)OCc3ccc(NC(=O)[C@@H](N)CC(C)C)cc3)ccc1C21OC(=O)c2ccccc21 (stereo partly drawn) [Probe 3, 4-((S)-2-Amino-4-methylpentanamido)benzyl (3′-(diethylamino)-3-oxo-3H-spiro[isobenzofuran-1,9′-xanthen]-6′-yl)carbamate] |  | ~0.987 |  | Fluorophore released in LAP reaction (% yield) ([1]; Rhoda-P2): 98.7%; Fluorophore released in LAP reaction (% yield) ([1]; listed as Rhoda-P2): 74.7%; pH-dependent stability (fluorescence of fluorophore released by degradation) [2]: no change in fluorescence emission according to the change in pH |
| CCN(CC)c1ccc2c(c1)Oc1cc(NC(=O)[C@@H](N)CC(C)C)ccc1C21OC(=O)c2ccccc21 (stereo partly drawn) [Probe 1, (2S)-2-Amino-N-(3′-(diethylamino)-3-oxo-3H-spiro[isobenzofuran-1,9′-xanthen]-6′-yl)-4-methylpentanamide] | 66.7 | ~0.667 |  | pH-dependent stability (fluorescence of fluorophore released by degradation) [2]: increased fluorescence emission in the pH range of 7-9 |
| COc1ccc2c(c1)Oc1cc(NC(=O)[C@@H](N)CC(C)C)ccc1C21OC(=O)c2ccccc21 (stereo partly drawn) [Probe 2, (2S)-2-Amino-N-(3′-methoxy-3-oxo-3H-spiro[isobenzofuran-1,9′-xanthen]-6′-yl)-4-methylpentanamide] | 89.7 | ~0.897 | faster kinetics than those of the corresponding P2 and P3 probes | lysosomal colocalization in confocal live cell imaging (HepG2 cells): colocalized into lysosomes with LysoTracker; pH-dependent stability (fluorescence of fluorophore released by degradation) [2]: increased fluorescence emission in the pH range of 7-9; LAP response at various concentrations of LAP [3]: nearly maximal responses at 10 μg/mL of LAP; time-dependent fluorescence emission in serum ([4]; C57/BL6 mice serum, 48 h): rapidly increased; % survival rate of probe in serum ([4]; 4 h p.i.): 45%; % survival rate of probe in serum ([4]; 48 h): 39% |
| COc1ccc2c(c1)Oc1cc(NC(=O)OCc3ccc(NC(=O)[C@@H](N)CC(C)C)cc3)ccc1C21OCc2ccccc21 (stereo partly drawn) [Probe 10, 4-((S)-2-Amino-4-methylpentanamido)benzyl (3′-methoxy-3H-spiro[isobenzofuran-1,9′-xanthen]-6′-yl)carbamate] | 67.6 | ~0.676 |  |  |
| CCN(CC)c1ccc2c(c1)Oc1cc(OCc3ccc(NC(=O)[C@@H](N)CC(C)C)cc3)ccc1C21OCc2ccccc21 (stereo partly drawn) [Probe 11, (2S)-2-Amino-N-(4-(((3′-(diethylamino)-3H-spiro[isobenzofuran-1,9′-xanthen]-6′-yl)oxy)methyl)phenyl)-4-methylpentanamide] | 29.8 | ~0.298 | notably slower kinetics | LAP response / fluorophore release (in words) [1]: lower responses |
| CCN(CC)c1ccc2c(c1)Oc1cc(NC(=O)[C@@H](N)CC(C)C)ccc1C21OCc2ccccc21 (stereo partly drawn) [Probe 7, (2S)-2-Amino-N-(3′-(diethylamino)-3H-spiro[isobenzofuran-1,9′-xanthen]-6′-yl)-4-methylpentanamide] | 74.1 | ~0.741 |  |  |
| COc1ccc2c(c1)Oc1cc(NC(=O)[C@@H](N)CC(C)C)ccc1C21OCc2ccccc21 (stereo partly drawn) [Probe 8, (2S)-2-Amino-N-(3′-methoxy-3H-spiro[isobenzofuran-1,9′-xanthen]-6′-yl)-4-methylpentanamide] | 93.9 | ~0.939 | faster kinetics than those of the corresponding P2 and P3 probes |  |
| CCN(CC)c1ccc2c(c1)Oc1cc(NC(=O)OCc3ccc(NC(=O)[C@@H](N)CC(C)C)cc3)ccc1C21OCc2ccccc21 (stereo partly drawn) [Probe 9, 4-((S)-2-Amino-4-methylpentanamido)benzyl (3′-(diethylamino)-3H-spiro[isobenzofuran-1,9′-xanthen]-6′-yl)carbamate] | 32.8 | ~0.328 |  |  |
| CCN(CC)c1ccc2c(c1)Oc1cc(OCc3ccc(NC(=O)[C@@H](N)CC(C)C)cc3)ccc1C21OC(=O)c2ccccc21 (stereo partly drawn) [Probe 5, (2S)-2-Amino-N-(4-(((3′-(diethylamino)-3-oxo-3H-spiro[isobenzofuran-1,9′-xanthen]-6′-yl)oxy)methyl)phenyl)-4-methylpentanamide] | 19.1 | ~0.191 | notably slower kinetics | LAP response / fluorophore release (in words) [1]: lower responses |
| COc1ccc2c(c1)Oc1cc(OCc3ccc(NC(=O)[C@@H](N)CC(C)C)cc3)ccc1C21OC(=O)c2ccccc21 (stereo partly drawn) [Probe 6, (2S)-2-Amino-N-(4-(((3′-methoxy-3-oxo-3H-spiro[isobenzofuran-1,9′-xanthen]-6′-yl)oxy)methyl)phenyl)-4-methylpentanamide] | 37.3 | ~0.373 | notably slower kinetics | LAP response / fluorophore release (in words) [1]: lower responses; LAP response at various concentrations of LAP [3]: nearly maximal responses at 10 μg/mL of LAP |
